From patent US10336739B2, “4-hydroxy-3-(heteroaryl)pyridine-2-one APJ agonists” (BRISTOL-MYERS SQUIBB COMPANY, priority 2015, dated 2019)

Each compound was assayed against human APJ receptor (Homo sapiens (Human), UniProt P35414) (assay: Intracellular cAMP accumulation assay (APJ hcAMP, HTRF)). Settings: HEK293 cells stably expressing human APJ receptor; inhibition of forskolin-mediated cAMP production; read-out: Human APJ cAMP EC50 Potency range.
Format: cell-based
In short: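 HEK293 cells stably expressing human APJ, 5,000 per well, exposed to compound with […] IBMX and 2 μM forskolin for 30 minutes at room temperature. cAMP measured by HTRF after lysis and 60 min detection incubation. EC50 from sigmoidal variable-slope fits of inhibition of forskolin-induced cAMP, quantified against a cAMP standard curve.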

Chain of human APJ receptor (P35414 whole entry): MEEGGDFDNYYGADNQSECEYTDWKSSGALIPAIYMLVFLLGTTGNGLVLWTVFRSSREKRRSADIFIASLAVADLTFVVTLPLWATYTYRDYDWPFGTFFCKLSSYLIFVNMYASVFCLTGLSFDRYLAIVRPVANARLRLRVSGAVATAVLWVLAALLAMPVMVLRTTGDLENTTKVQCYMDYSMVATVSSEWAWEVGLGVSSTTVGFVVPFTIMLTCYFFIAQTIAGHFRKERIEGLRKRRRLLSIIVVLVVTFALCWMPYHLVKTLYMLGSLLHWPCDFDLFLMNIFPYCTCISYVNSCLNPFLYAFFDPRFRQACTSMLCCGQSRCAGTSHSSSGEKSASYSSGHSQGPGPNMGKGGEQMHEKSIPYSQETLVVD

For `CCCCc1nc(O)c(-c2nnc(Cc3nnc(-c4ccc(Cl)cc4)o3)o2)c(O)c1-c1c(OC)cccc1OC` [Example 205, 6-butyl-3-(5-{[5-(4-chlorophenyl)-1,3,4-oxadiazol-2-yl]methyl}-1,3,4-oxadiazol-2-yl)-5-(2,6-dimethoxyphenyl)pyridine-2,4-diol], which EC50 is on record?
Its EC50 is 10 to 100 nM.

With `CCOCc1nc(O)c(-c2nnc(Cn3ccccc3=O)o2)c(O)c1-c1c(OC)cc(F)cc1OC` [Example 212, 1-({5-[6-(ethoxymethyl)-5-(4-fluoro-2,6-dimethoxyphenyl)-2,4-dihydroxypyridin-3-yl]-1,3,4-oxadiazol-2-yl}methyl)-1,2-dihydropyridin-2-one] as the compound, how does the EC50 read?
Its EC50 is 10 to 100 nM.

With `CCOCc1nc(O)c(-c2nnc(Cc3ccc(Cl)cc3)o2)c(O)c1-c1c(OC)cncc1OC` [Example 217, 3-{5-[(4-chlorophenyl)methyl]-1,3,4-oxadiazol-2-yl}-5-(3,5-dimethoxypyridin-4-yl)-6-(ethoxymethyl)pyridine-2,4-diol] as the compound, how does the EC50 read?
The EC50 was 10 to 100 nM.

With `CCCCc1nc(O)c(-c2nnc(Cc3noc4ccccc34)o2)c(O)c1-c1c(C)cccc1C` [Example 224, 3-[5-(1,2-benzoxazol-3-ylmethyl)-1,3,4-oxadiazol-2-yl]-6-butyl-5-(2,6-dimethylphenyl)pyridine-2,4-diol] as the compound, how does the EC50 read?
The EC50 was 0.01 to 10 nM.

How did the EC50 turn out when `CCCCc1nc(O)c(-c2nnc(Cc3noc4cccnc34)o2)c(O)c1-c1c(OC)cccc1OC` [Example 227, 6-butyl-5-(2,6-dimethoxyphenyl)-3-(5-{[1,2]oxazolo[4,5-b]pyridin-3-ylmethyl}-1,3,4-oxadiazol-2-yl)pyridine-2,4-diol] was run?
Its EC50 is 0.01 to 10 nM.

For `CCOCc1nc(O)c(-c2nnc(Cc3ccc(Cl)cc3)o2)c(O)c1-c1c(O)cccc1O` [Example 229, 3-{5-[(4-chlorophenyl)methyl]-1,3,4-oxadiazol-2-yl}-5-(2,6-dihydroxyphenyl)-6-(ethoxymethyl)pyridine-2,4-diol], which EC50 is on record?
Its EC50 is 10 to 100 nM.

Same assay, conditions: HEK293 cells stably expressing human APJ receptor; inhibition of forskolin-mediated cAMP production; read-out: hAPJ cAMP EC50 Potency range

`CCCCc1nc(O)c(-c2nnc(CC(=O)NCC(F)F)o2)c(O)c1-c1c(OC)cccc1OC` [Example 191, 2-{5-[6-butyl-5-(2,6-dimethoxyphenyl)-2,4-dihydroxypyridin-3-yl]-1,3,4-oxadiazol-2-yl}-N-(2,2-difluoroethyl) acetamide] was tested. Which EC50 did it give?
Its EC50 is 0.01 to 10 nM.

How did the EC50 turn out when `CCCCc1nc(O)c(-c2nnc(CC(=O)NCC(F)(F)F)o2)c(O)c1-c1c(OC)cccc1OC` [Example 192, 2-{5-[6-butyl-5-(2,6-dimethoxyphenyl)-2,4-dihydroxypyridin-3-yl]-1,3,4-oxadiazol-2-yl}-N-(2,2,2-trifluoroethyl) acetamide] was run?
The EC50 was 0.01 to 10 nM.

`CCCCc1nc(O)c(-c2nnc(CC(=O)NCCOC)o2)c(O)c1-c1c(OC)cccc1OC` [Example 193, 2-{5-[6-butyl-5-(2,6-dimethoxyphenyl)-2,4-dihydroxypyridin-3-yl]-1,3,4-oxadiazol-2-yl}-N-(2-methoxyethyl) acetamide] was tested. Which EC50 did it give?
Its EC50 is 10 to 100 nM.

How did the EC50 turn out when `CCCCc1nc(O)c(-c2nnc(CC(=O)N3CCCC3)o2)c(O)c1-c1c(OC)cccc1OC` [Example 194, 2-{5-[6-butyl-5-(2,6-dimethoxyphenyl)-2,4-dihydroxypyridin-3-yl]-1,3,4-oxadiazol-2-yl}-1-(pyrrolidin-1-yl)ethan-1-one] was run?
Its EC50 is 0.01 to 10 nM.

With `CCCCc1nc(O)c(-c2nnc(CC(=O)N3CCCCC3)o2)c(O)c1-c1c(OC)cccc1OC` [Example 195, 2-{5-[6-butyl-5-(2,6-dimethoxyphenyl)-2,4-dihydroxypyridin-3-yl]-1,3,4-oxadiazol-2-yl}-1-(piperidin-1-yl)ethan-1-one] as the compound, how does the EC50 read?
The EC50 was 0.01 to 10 nM.

For `CCCCc1nc(O)c(-c2nnc(CC(=O)N3CCOCC3)o2)c(O)c1-c1c(OC)cccc1OC` [Example 196, 2-{5-[6-butyl-5-(2,6-dimethoxyphenyl)-2,4-dihydroxypyridin-3-yl]-1,3,4-oxadiazol-2-yl}-1-(morpholin-4-yl)ethan-1-one], which EC50 is on record?
Its EC50 is 0.01 to 10 nM.

Which EC50 does the source give for `CCCCNC(=O)Cc1nnc(-c2c(O)nc(CCCC)c(-c3c(OC)cccc3OC)c2O)o1` [Example 197, N-butyl-2-{5-[6-butyl-5-(2,6-dimethoxyphenyl)-2,4-dihydroxypyridin-3-yl]-1,3,4-oxadiazol-2-yl}acetamide] here?
The EC50 was 0.01 to 10 nM.

How did the EC50 turn out when `CCCCCNC(=O)Cc1nnc(-c2c(O)nc(CCCC)c(-c3c(OC)cccc3OC)c2O)o1` [Example 198, 2-{5-[6-butyl-5-(2,6-dimethoxyphenyl)-2,4-dihydroxypyridin-3-yl]-1,3,4-oxadiazol-2-yl}-N-pentylacetamide] was run?
Its EC50 is 10 to 100 nM.

`CCCCc1nc(O)c(-c2nnc(CC(=O)N3CC(F)C3)o2)c(O)c1-c1c(OC)cccc1OC` [Example 199, 2-{5-[6-butyl-5-(2,6-dimethoxyphenyl)-2,4-dihydroxypyridin-3-yl]-1,3,4-oxadiazol-2-yl}-1-(3-fluoroazetidin-1-yl)ethan-1-one] was tested. Which EC50 did it give?
The EC50 was 0.01 to 10 nM.

How did the EC50 turn out when `CCCCc1nc(O)c(-c2nnc(CC(=O)N3CC(F)(F)C3)o2)c(O)c1-c1c(OC)cccc1OC` [Example 200, 2-{5-[6-butyl-5-(2,6-dimethoxyphenyl)-2,4-dihydroxypyridin-3-yl]-1,3,4-oxadiazol-2-yl}-1-(3,3-difluoroazetidin-1-yl)ethan-1-one] was run?
Its EC50 is 0.01 to 10 nM.

Which EC50 does the source give for `CCCCc1nc(O)c(-c2nnc(CC(=O)Nc3nccs3)o2)c(O)c1-c1c(OC)cccc1OC` [Example 201, 2-{5-[6-butyl-5-(2,6-dimethoxyphenyl)-2,4-dihydroxypyridin-3-yl]-1,3,4-oxadiazol-2-yl}-N-(1,3-thiazol-2-yl)acetamide] here?
Its EC50 is 0.01 to 10 nM.

`CCCCc1nc(O)c(-c2nc(Cc3ccc(Cl)cc3)no2)c(O)c1-c1c(OC)cccc1OC` [Example 203, 6-butyl-3-{3-[(4-chlorophenyl)methyl]-1,2,4-oxadiazol-5-yl}-5-(2,6-dimethoxyphenyl) pyridine-2,4-diol] was tested. Which EC50 did it give?
Its EC50 is 10 to 100 nM.

`CCCCc1nc(O)c(-c2nnc(Cc3nnc(-c4ccncc4)o3)o2)c(O)c1-c1c(OC)cccc1OC` [Example 206, 6-butyl-5-(2,6-dimethoxyphenyl)-3-(5-{[5-(pyridin-4-yl)-1,3,4-oxadiazol-2-yl]methyl}-1,3,4-oxadiazol-2-yl)pyridine-2,4-diol] was tested. Which EC50 did it give?
The EC50 was 0.01 to 10 nM.

With `CCCCc1nc(O)c(-c2nnc(Cc3nnc(-c4ccccn4)o3)o2)c(O)c1-c1c(OC)cccc1OC` [Example 207, 6-butyl-5-(2,6-dimethoxyphenyl)-3-(5-{[5-(pyridin-2-yl)-1,3,4-oxadiazol-2-yl]methyl}-1,3,4-oxadiazol-2-yl)pyridine-2,4-diol] as the compound, how does the EC50 read?
Its EC50 is 0.01 to 10 nM.

With `CCCCc1nc(O)c(-c2nnc(Cc3nnc(-c4ccccc4Cl)o3)o2)c(O)c1-c1c(OC)cccc1OC` [Example 208, 6-butyl-3-(5-{[5-(2-chlorophenyl)-1,3,4-oxadiazol-2-yl]methyl}-1,3,4-oxadiazol-2-yl)-5-(2,6-dimethoxyphenyl) pyridine-2,4-diol] as the compound, how does the EC50 read?
Its EC50 is 0.01 to 10 nM.

For `CCCCc1nc(O)c(-c2nnc(Cc3nnc(Cc4ccccc4)o3)o2)c(O)c1-c1c(OC)cccc1OC` [Example 209, 3-{5-[(5-benzyl-1,3,4-oxadiazol-2-yl)methyl]-1,3,4-oxadiazol-2-yl}-6-butyl-5-(2,6-dimethoxyphenyl) pyridine-2,4-diol], which EC50 is on record?
Its EC50 is 0.01 to 10 nM.

With `CCCCc1nc(O)c(-c2nnc(Cc3nnc(-c4cccc(Cl)c4)o3)o2)c(O)c1-c1c(OC)cccc1OC` [Example 210, 6-butyl-3-(5-{[5-(3-chlorophenyl)-1,3,4-oxadiazol-2-yl]methyl}-1,3,4-oxadiazol-2-yl)-5-(2,6-dimethoxyphenyl) pyridine-2,4-diol] as the compound, how does the EC50 read?
The EC50 was 10 to 100 nM.

How did the EC50 turn out when `CCCCc1nc(O)c(-c2nnc(Cc3nnc(-c4cccnc4)o3)o2)c(O)c1-c1c(OC)cccc1OC` [Example 211, 6-butyl-5-(2,6-dimethoxyphenyl)-3-(5-{[5-(pyridin-3-yl)-1,3,4-oxadiazol-2-yl]methyl}-1,3,4-oxadiazol-2-yl)pyridine-2,4-diol] was run?
The EC50 was 10 to 100 nM.

How did the EC50 turn out when `CCOCc1nc(O)c(-c2nnc(Cc3noc4ccccc34)o2)c(O)c1-c1c(OC)cc(F)cc1OC` [Example 213, 3-[5-(1,2-benzoxazol-3-ylmethyl)-1,3,4-oxadiazol-2-yl]-6-(ethoxymethyl)-5-(4-fluoro-2,6-dimethoxyphenyl) pyridine-2,4-diol] was run?
The EC50 was 0.01 to 10 nM.

For `CCOCc1nc(O)c(-c2nnc(Cc3ccc(Cl)cc3)o2)c(O)c1-c1c(OC)cc(F)cc1OC` [Example 214, 3-{5-[(4-chlorophenyl)methyl]-1,3,4-oxadiazol-2-yl}-6-(ethoxymethyl)-5-(4-fluoro-2,6-dimethoxyphenyl) pyridine-2,4-diol], which EC50 is on record?
The EC50 was 0.01 to 10 nM.

`CCOCc1nc(O)c(-c2nnc(CN3CCCC3=O)o2)c(O)c1-c1c(OC)cc(F)cc1OC` [Example 215, 1-({5-[6-(ethoxymethyl)-5-(4-fluoro-2,6-dimethoxyphenyl)-2,4-dihydroxypyridin-3-yl]-1,3,4-oxadiazol-2-yl}methyl) pyrrolidin-2-one] was tested. Which EC50 did it give?
The EC50 was 10 to 100 nM.

With `CCOCc1nc(O)c(-c2nnc(Cc3ccc(Cl)nc3)o2)c(O)c1-c1c(OC)cc(F)cc1OC` [Example 216, 3-{5-[(6-chloropyridin-3-yl)methyl]-1,3,4-oxadiazol-2-yl}-6-(ethoxymethyl)-5-(4-fluoro-2,6-dimethoxyphenyl) pyridine-2,4-diol] as the compound, how does the EC50 read?
Its EC50 is 0.01 to 10 nM.

With `CCCCc1nc(O)c(-c2nnc(Cc3noc4ccccc34)o2)c(O)c1-c1c(C)cc(C)cc1C` [Example 225, 3-[5-(1,2-benzoxazol-3-ylmethyl)-1,3,4-oxadiazol-2-yl]-6-butyl-5-(2,4,6-trimethylphenyl) pyridine-2,4-diol] as the compound, how does the EC50 read?
The EC50 was 10 to 100 nM.

For `CCCCc1nc(O)c(-c2nnc(Cc3noc4ccccc34)o2)c(O)c1-c1c(CC)cccc1CC` [Example 226, 3-[5-(1,2-benzoxazol-3-ylmethyl)-1,3,4-oxadiazol-2-yl]-6-butyl-5-(2,6-diethylphenyl) pyridine-2,4-diol], which EC50 is on record?
Its EC50 is 0.01 to 10 nM.

With `CCOCc1nc(O)c(-c2nnc(Cc3noc4cccnc34)o2)c(O)c1-c1c(OC)cccc1OC` [Example 228, 5-(2,6-dimethoxyphenyl)-6-(ethoxymethyl)-3-(5-{[1,2]oxazolo[4,5-b]pyridin-3-ylmethyl}-1,3,4-oxadiazol-2-yl)pyridine-2,4-diol] as the compound, how does the EC50 read?
Its EC50 is 0.01 to 10 nM.
